Values quoted from earlier work in patent publication US20060270591A1, “Androgen receptor coregulators” (priority 2002, published 2006).

System: AR
Details: CV-1 cells; reported by others; cited from earlier work

AR, sequence (P10275 whole entry): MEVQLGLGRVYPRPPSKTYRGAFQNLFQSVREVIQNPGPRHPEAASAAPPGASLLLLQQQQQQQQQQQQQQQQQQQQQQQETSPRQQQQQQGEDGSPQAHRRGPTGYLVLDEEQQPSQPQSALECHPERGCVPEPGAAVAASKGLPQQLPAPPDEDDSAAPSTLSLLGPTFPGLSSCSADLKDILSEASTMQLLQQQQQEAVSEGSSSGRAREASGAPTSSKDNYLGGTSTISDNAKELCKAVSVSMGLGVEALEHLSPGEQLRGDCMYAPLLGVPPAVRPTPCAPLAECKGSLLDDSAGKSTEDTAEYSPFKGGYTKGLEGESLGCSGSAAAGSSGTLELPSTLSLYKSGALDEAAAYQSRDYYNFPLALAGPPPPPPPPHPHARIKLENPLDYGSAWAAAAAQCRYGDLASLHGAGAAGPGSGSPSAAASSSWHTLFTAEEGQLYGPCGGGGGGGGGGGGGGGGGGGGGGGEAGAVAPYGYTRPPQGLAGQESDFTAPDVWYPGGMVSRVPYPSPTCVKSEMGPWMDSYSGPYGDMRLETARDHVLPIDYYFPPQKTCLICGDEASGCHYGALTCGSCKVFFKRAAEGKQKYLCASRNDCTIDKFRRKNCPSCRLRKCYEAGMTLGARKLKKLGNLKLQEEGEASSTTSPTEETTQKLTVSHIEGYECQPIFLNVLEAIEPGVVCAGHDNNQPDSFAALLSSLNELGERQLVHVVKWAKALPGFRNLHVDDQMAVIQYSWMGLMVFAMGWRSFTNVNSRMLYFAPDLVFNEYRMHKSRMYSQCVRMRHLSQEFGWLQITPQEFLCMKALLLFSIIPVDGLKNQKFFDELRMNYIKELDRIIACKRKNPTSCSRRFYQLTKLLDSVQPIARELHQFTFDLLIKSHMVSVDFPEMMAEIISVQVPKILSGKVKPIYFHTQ

Substance: ARA70: ligand-enhanced AR coregulator, full length ARA70
- enhancement of AR activity: 2-3 fold
